Tests used:
[1] = molecular target: T1, Kv7.2/3 K+ channels (M-channels) (Homo sapiens, UniProt O43525+O43526); assay: Whole-cell patch-clamp of recombinant Kv7.2/3 channels in CHO cells; type: cell-based; details: for V50 of Kv7.2/3 activation: n = 5; for fold increase in Kv7.2/3 current amplitude: step −90 to −50 mV
T1 construct: expressed in transfected cells; host or cells: CHO cells
Procedure: Chinese hamster ovary (CHO) cells were grown in Dulbecco's modified Eagle's medium (DMEM) supplemented with 2 mM glutamine, 10% fetal calf serum and antibiotics. Briefly, 40,000 cells seeded on poly-D-lysine-coated glass coverslips (13 mm diameter) in a 24-multiwell plate were transfected with pIRES-CD8 (0.5 µg) as a marker for transfection, and with Kv7.2 (0.5 µg) and Kv7.3 (0.5 µg). For electrophysiology, transfected cells were visualized approximately 40 hours following transfection, using anti-CD8 antibody-coated beads. Transfection was performed using Fugene 6 (Roche, Indianapolis IN, USA) according to the manufacturer's protocol.
Voltage-clamp recordings in CHO cells were performed, using the whole-cell configuration of the patch-clamp technique. Signals were amplified using an Axopatch 200B patch-clamp amplifier (Molecular Devices, Sunnyvale, CA), sampled at 2 kHz and filtered at 800 Hz via a 4-pole Bessel low pass filter. […] The patch pipettes were pulled from borosilicate glass (Warner Instrument Corp, USA) with a resistance of 2–5 MΩ. For K^+ current recordings in CHO cells, the intracellular pipette solution contained (in mM): 130 KCl, 1 MgCl2, 5 K2ATP, 5 EGTA, 10 HEPES, adjusted with KOH to pH 7.4 (290 mOsm). The extracellular solution contained (in mM): 140 NaCl, 4 KCl, 1.8 CaCl2, 1.2 MgCl2, 11 glucose, 5.5 HEPES, adjusted with NaOH to pH 7.4 (310 mOsm). Series resistances (3–13 MΩ) were compensated (75–90%) and periodically monitored.
Data analysis was performed using the Clampfit program (pClamp 9.2, Molecular Devices), Microsoft Excel (Microsoft) and Prism 4.0 (GraphPad). Chord conductance (G) was calculated by using the following equation: [drawing 1] where I corresponds to the current amplitude measured at the end of the pulse and Vrev, the calculated reversal potential. G was estimated at various test voltages V and then, normalized to a maximal conductance value, Gmax. Activation curves were fitted by one Boltzmann distribution: [drawing 2] where V50 is the voltage at which the current is half-activated and s is the slope factor. All data were expressed as mean±SEM. Statistically significant differences were assessed by Student's t-test. Analysis of sEPSCs and sIPSCs was done using the Clampfit program (pClamp 9.2, Molecular Devices) and included evaluation of the individual events as well as the average event amplitude and the integral of the event (total charge transfer).

[2] = test system: rat DRG neurons; assay: Current-clamp recording of cultured DRG neurons; type: cell-based; details: 25 µM
Procedure: For dorsal root ganglion (DRG) neuronal cultures, ganglia were dissected from 2–5 day-old Sprague-Dawley rats killed by decapitation. DRGs were placed in Hank's balanced saline solution (HBSS) and prepared by enzymatic dissociation. Briefly, after 30 min incubation in 5 mg/ml dispase, 2 mg/ml collagenase type 1A and 0.1 mg/ml DNase (Invitrogen/Gibco, Carlsbad, CA) in Ca^2+ and Mg^2+-free HBSS, the ganglia were mechanically triturated with a fire-polished glass Pasteur pipette. The ganglia were then centrifuged for 5 min at 80xg and resuspended in DMEM supplemented with 2 mM L-glutamine, 16.5 mM NaHCO3, 6 g/l glucose, 5 ml penicillin/streptomycin and 10% fetal calf serum. For electrophysiological recording, dissociated neurons were plated on 13 mm glass coverslips, previously coated with poly-D-lysine (1 mg/ml) and laminin (10 µg/ml) and used at 1–2 days in culture.
For current-clamp recordings in primary cultured neurons, the patch pipettes were filled with (in mM): 135 KCl, 1 K2ATP, 1 MgATP, 2 EGTA, 1.1 CaCl2, 5 glucose, 10 HEPES, adjusted with KOH at pH 7.4 (315 mOsm). The external solution contained (in mM): 150 NaCl, 2.5 KCl, 2 CaCl2, 2 MgCl2, 15 glucose, 10 HEPES, adjusted with NaOH at pH 7.4 (325 mOsm). Recordings were sampled at 5 kHz and filtered at 2 KHz via a 4-pole Bessel low pass filter. A liquid junction potential of about −15.6 mV was measured between the intracellular and saline solutions and corrected on-line. For evoking spike discharges, 75–200 pA square depolarizing current pulses were injected into neurons for 400 ms. For rheobase current measurements, 100–1100 pA square depolarizing current pulses were injected into neurons for 2 ms.

[3] = test system: MES-induced tonic hind limb extension; assay: Maximal electroshock seizure (MES) model; type: in vivo, mouse; details: Mus musculus, ip; mice, intraperitoneal, 30 min before electroshock (0.2 sec, 50 mA); read-out: ED50, protection against tonic extension caused by MES
Procedure: This test is generally thought to be a model of generalized tonic-clonic seizure in human.
The anti-convulsant effect was measured by the maximal electroshock seizure model (MES) in ICR mice as previously described. The procedures followed for experimentation and maintenance of the animals were approved by the animal research ethics committee of Tel Aviv University and in accordance with the Guide for the Care and Use of Laboratory Animals (1996, National Academy of Sciences, Washington DC). Briefly, maximal electroshock was induced in adult mice by means of two transcorneal electrodes delivering an alternative current of 50 mA at 60 Hz for 0.2 sec using rodent shocker (Hugo Sachs Electronik, type 221). […] The drugs dissolved in 0.9% saline were administered intraperitoneally 30 min before the electroshock was performed. Animals failing to show tonic hind limb extension were scored as protected and were expressed in percentage.

T1 sequence (O43526 whole entry): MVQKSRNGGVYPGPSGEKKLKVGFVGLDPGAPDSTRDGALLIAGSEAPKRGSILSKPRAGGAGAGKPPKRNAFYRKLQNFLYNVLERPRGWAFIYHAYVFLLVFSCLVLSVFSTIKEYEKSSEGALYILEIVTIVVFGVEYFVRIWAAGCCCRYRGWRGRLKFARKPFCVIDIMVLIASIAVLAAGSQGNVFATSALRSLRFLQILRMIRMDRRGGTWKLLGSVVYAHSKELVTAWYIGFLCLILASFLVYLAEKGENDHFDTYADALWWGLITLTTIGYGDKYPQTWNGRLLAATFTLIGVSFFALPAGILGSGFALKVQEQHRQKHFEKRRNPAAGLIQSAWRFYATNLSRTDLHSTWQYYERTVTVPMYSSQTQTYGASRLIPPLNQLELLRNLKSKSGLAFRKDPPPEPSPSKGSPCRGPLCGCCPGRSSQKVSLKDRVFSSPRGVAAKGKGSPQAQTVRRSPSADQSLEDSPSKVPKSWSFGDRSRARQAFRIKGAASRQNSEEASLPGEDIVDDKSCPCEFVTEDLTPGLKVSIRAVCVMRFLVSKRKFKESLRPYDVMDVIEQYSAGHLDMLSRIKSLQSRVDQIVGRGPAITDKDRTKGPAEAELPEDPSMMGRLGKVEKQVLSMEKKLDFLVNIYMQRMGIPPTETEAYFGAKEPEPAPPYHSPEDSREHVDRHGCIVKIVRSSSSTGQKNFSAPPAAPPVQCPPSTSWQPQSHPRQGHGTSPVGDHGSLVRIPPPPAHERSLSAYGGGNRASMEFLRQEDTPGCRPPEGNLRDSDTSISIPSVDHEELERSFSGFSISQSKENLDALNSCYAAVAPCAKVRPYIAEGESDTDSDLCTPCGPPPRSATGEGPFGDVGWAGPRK
T1 sequence (O43525 whole entry): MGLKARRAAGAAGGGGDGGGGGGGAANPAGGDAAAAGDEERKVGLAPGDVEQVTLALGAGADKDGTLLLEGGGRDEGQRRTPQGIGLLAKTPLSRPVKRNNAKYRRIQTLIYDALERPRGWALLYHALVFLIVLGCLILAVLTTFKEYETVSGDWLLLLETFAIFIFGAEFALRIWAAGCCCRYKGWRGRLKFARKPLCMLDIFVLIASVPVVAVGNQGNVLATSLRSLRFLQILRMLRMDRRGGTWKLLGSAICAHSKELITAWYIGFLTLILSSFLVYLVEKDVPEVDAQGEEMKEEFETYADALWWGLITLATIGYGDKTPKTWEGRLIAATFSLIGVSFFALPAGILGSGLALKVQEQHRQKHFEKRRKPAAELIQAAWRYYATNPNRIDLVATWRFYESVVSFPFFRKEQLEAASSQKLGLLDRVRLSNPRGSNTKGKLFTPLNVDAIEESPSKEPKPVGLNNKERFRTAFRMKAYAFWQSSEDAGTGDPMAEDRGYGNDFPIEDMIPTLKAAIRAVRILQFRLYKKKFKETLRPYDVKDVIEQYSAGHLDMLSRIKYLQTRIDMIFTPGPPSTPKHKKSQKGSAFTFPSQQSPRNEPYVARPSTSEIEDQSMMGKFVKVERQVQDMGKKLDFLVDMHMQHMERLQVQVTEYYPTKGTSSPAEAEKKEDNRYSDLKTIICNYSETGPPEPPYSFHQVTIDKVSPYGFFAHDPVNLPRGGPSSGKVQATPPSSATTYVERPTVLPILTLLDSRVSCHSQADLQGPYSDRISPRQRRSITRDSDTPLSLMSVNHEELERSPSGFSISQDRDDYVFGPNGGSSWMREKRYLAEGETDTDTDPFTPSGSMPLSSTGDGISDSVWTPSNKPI

With `O=C(Cc1cc([N+](=O)[O-])ccc1Nc1c(Cl)cccc1Cl)OCCO` [Compound 15] the “left-shift of Kv7.2/3 activation curve” value ([1]; 10 µM) was −11 mV, the “V50 of Kv7.2/3 activation” value ([1]; 10 µM) was −43.6±9.0 mV and the “fold increase in Kv7.2/3 current amplitude” value ([1]; 10 µM) was 3.2 fold. The “activation kinetics t1/2 of Kv7.2/3” value ([1]; 25 µM, at −20 mV) was 0.171 ± 0.029 s, the “deactivation time constant τdeact of Kv7.2/3” value ([1]; 25 µM, tail currents at −60 mV) was 284 ± 43 ms and the “left-shift of Kv7.2/3 activation curve” value ([1]; 50 µM) was −21 mV. For the same molecule, the “V50 of Kv7.2/3 activation” value ([1]; 50 µM) was −53.5±9.3 mV, the “fold increase in Kv7.2/3 current amplitude” value ([1]; 50 µM) was 9.1 fold and the “left-shift of Kv7.2/3 activation curve” value ([1]; 200 µM) was −31 mV. The “V50 of Kv7.2/3 activation” value ([1]; 200 µM) was −63.1±2.0 mV, the “ΔV50 (mV), left-shift in half-activation potential” value ([1]; Kv7.2/3 in CHO cells) was −31.0 mV and the “M-channels (Kv7.2/Kv7.3) effect (opener / blocker / inactive)” value ([1]; Kv7.2 and Kv7.3 coexpressed in CHO cells) was “opener”. For the same molecule, the EC50 ([1]; concentration-dependent left-shift ΔV50, sigmoidal fit, read-out: M-channel opener potency EC50) was 22 µM, the “hyperpolarization of resting membrane potential, DRG neurons” value [2] was −8.3±0.2 mV and the “resting membrane potential of DRG neurons after exposure” value [2] was −69.0±0.3 mV. For the same molecule, the “rheobase current to generate a single spike, DRG neurons” value ([2]; 2 ms injection) was 577±38 pA, the “number of evoked action potentials, DRG neurons” value ([2]; depolarizing current for 400 ms) was 0.8±0.3 and the ED50 [3] was 12 mg/kg.
